Experimental data published in publication PMC7997572 (2020).

Legend:
Assay in all cases: CD melting
[1] = tested on: c-Kit1 (DNA, G4) AGGGAGGGCGCTGGGAGGAGGG; conditions: K+ (20 mM potassium phosphate, 5 mM KCl; Table S1 note: 5 mM phosphate, 20 mM KCl); pH 7.0; 150 μM compound (10 equiv), 15 μM DNA
[2] = tested on: Tel23-h (DNA, G4) TTAGGGTTAGGGTTAGGGTTAGGGTT; conditions: K+ (20 mM potassium phosphate, 5 mM KCl; Table S1 note: 5 mM phosphate, 20 mM KCl); pH 7.0; 150 μM compound (10 equiv), 15 μM DNA
[3] = tested on: Tel23-p (DNA, G4) TTAGGGTTAGGGTTAGGGTTAGGGTT; conditions: K+ (20 mM potassium phosphate, 5 mM KCl; Table S1 note: 5 mM phosphate, 20 mM KCl); pH 7.0; 150 μM compound (10 equiv), 15 μM DNA
[4] = tested on: c-Kit2 (DNA, G4) CGGGCGGGCGCTAGGGAGGGT; conditions: K+ (20 mM potassium phosphate, 5 mM KCl; Table S1 note: 5 mM phosphate, 20 mM KCl); pH 7.0; 150 μM compound (10 equiv), 15 μM DNA
[5] = tested on: c-Myc (DNA, G4) TGAGGGTGGGTAGGGTGGGTAA; conditions: K+ (20 mM potassium phosphate, 5 mM KCl; Table S1 note: 5 mM phosphate, 20 mM KCl), pH 7.0, 150 μM compound (10 equiv), 15 μM DNA
[6] = tested on: Hairpin (DNA, hairpin) CGAATTCGTTTTCGAATTCG; conditions: K+ (20 mM potassium phosphate, 5 mM KCl; Table S1 note: 5 mM phosphate, 20 mM KCl); pH 7.0; 300 μM compound (10 equiv), 30 μM DNA

Compound	ΔTm [1] [°C]	ΔTm [2] [°C]	ΔTm [6] [°C]	also measured
CC(C)(C)c1cc(/C=N/NC(=N)N)c(O)c(/C=C2/C(=O)Nc3c2ccc2ccccc32)c1	1.5 ± 1.0	1.0 ± 1.0		ΔTm [3]: 27.0 ± 1.0 °C
O=C1Nc2c(ccc3ccccc23)/C1=C\c1cccc(/C=N/NC2=NCCN2)c1	14.5 ± 1.0			ΔTm [4]: 26.0 ± 1.0 °C; ΔTm ([5]; exact value not determinable): > 22 °C
NC(N)=N/N=C/c1c(Cl)n(C/C=C/c2ccccc2)c2ccccc12			0.0 ± 1.0	
O=C1Nc2ccc(Cl)cc2/C1=C\c1cccc(/C=N/NC2=NCCN2)c1				ΔTm [5]: 14.1 ± 1.0 °C
COc1cc2c(/C=N/NC(=N)N)c(Cl)n(C)c2cc1C			7.0 ± 1.0	
Cc1cc2c(cc1O)/C(=C\c1cccc(/C=N/NC(=N)N)c1)C(=O)N2		10.0 ± 1.0		
